ChEMBL document CHEMBL3091271, “Discovery of triazine mimetics as potent antileishmanial agents” (ACS Med Chem Lett, 2013)
Activity calls are given as the source filed them. The rule behind the calls is not given here.

Legend:
Leishmania donovani [1] = assay: Antileishmanial activity against amastigote stage of Leishmania donovani MHOM/IN/80/Dd8 infected in golden hamster assessed as inhibition of parasite multiplication in splen at 50 mg/kg/day, ip administered for 5 days measured on day 7 by Giemsa staining relative to control; format: functional; details: MHOM/IN/80/Dd8, ip, route intraperitoneal
Leishmania donovani [2] = assay: Antileishmanial activity against amastigote stage of Leishmania donovani MHOM/IN/80/Dd8 infected in mouse J-774A.1 cells after 72 hrs by luciferase reporter gene assay; format: functional, organism-based; details: MHOM/IN/80/Dd8, J774.A1, 72 h
[3] = (§1) Selectivity index, ratio of CC50 to African green monkey Vero cells to IC50 for amastigote stage of Leishmania donovani MHOM/IN/80/Dd8; format: functional
Syrian golden hamster = assay: Toxicity in golden hamster infected with amastigote stage of Leishmania donovani MHOM/IN/80/Dd8 assessed as appearance of abnormal behavior at 50 mg/kg/day, ip measured for 5 days; format: organism-based, Mesocricetus auratus; design: route intraperitoneal; details: in vivo, 120 h
[4] = Cytotoxicity against African green monkey Vero cells assessed as cell viability after 72 hrs by MTT assay; format: cell-based; details: chlorocebus sabaeus
J774.A1 [5] = assay: Immunostimulatory activity in Leishmania infected mouse J774A1 cells assessed as downregulation of IL-10 level at IC50 measured at 24 hrs by sandwich ELISA; format: functional, cell-based
J774.A1 [6] = assay: Immunostimulatory activity in Leishmania infected mouse J774A1 cells assessed as increase in nitric oxide production at IC50 measured at 48 hrs by sandwich ELISA; format: functional, cell-based
[7] = Immunostimulatory activity in Leishmania infected mouse J774A1 cells assessed as upregulation of TNF-alpha level at IC50 measured at 48 hrs by sandwich ELISA; format: functional, cell-based; details: J774.A1
J774.A1 [8] = assay: Immunostimulatory activity in Leishmania infected mouse J774A1 cells assessed as downregulation of IL-10 level at IC50 measured at 48 hrs by sandwich ELISA; format: functional, cell-based
J774.A1 [9] = assay: Immunostimulatory activity in Leishmania infected mouse J774A1 cells assessed as increase in nitric oxide production at IC50 measured at 24 hrs by sandwich ELISA relative to untreated infected cell; format: functional
[10] = Immunostimulatory activity in Leishmania infected mouse J774A1 cells assessed as upregulation of TNF-alpha level at IC50 measured at 24 hrs by sandwich ELISA relative to untreated infected cell; format: functional, cell-based; details: J774.A1
J774.A1 [11] = assay: Immunostimulatory activity in Leishmania infected mouse J774A1 cells assessed as downregulation of TGF-beta level at IC50 measured at 24 hrs by sandwich ELISA relative to untreated infected cell; format: functional
[12] = Immunostimulatory activity in Leishmania infected mouse J774A1 cells assessed as upregulation of IL-12 level at IC50 measured at 48 hrs by sandwich ELISA; format: functional, cell-based; details: J774.A1
[13] = Immunostimulatory activity in Leishmania infected mouse J774A1 cells assessed as upregulation of IL-12 level at IC50 measured at 24 hrs by sandwich ELISA relative to untreated infected cell; format: functional, cell-based; details: J774.A1
J774.A1 [14] = assay: Immunostimulatory activity in Leishmania infected mouse J774A1 cells assessed as downregulation of TGF-beta level at IC50 measured at 48 hrs by sandwich ELISA; format: functional, cell-based
Vero = assay: as §1; format: functional

Compound: CC(C)(C)Nc1nc(NCCCCOc2nc(Nc3ccccc3)nc(NC(C)(C)C)n2)nc(Nc2ccccc2)n1
- inhibition in vivo at 50 mg/kg/day (Leishmania donovani [1]): 62.6%
- IC50 (Leishmania donovani [2]): 0.77 µM
- Ratio CC50/IC50 [3]: 257.48
- Activity (Syrian golden hamster): Non-toxic
- CC50 at 72 h [4]: 198 µM

Compound: CCCCCCCCCCCCCCCCOP(=O)([O-])OCC[N+](C)(C)C [MILTEFOSINE]
- IC50 (Leishmania donovani [2]): 8.1 µM
- Ratio CC50/IC50 [3]: 6.56

Compound: CCCNc1nc(NCCCCCOc2nc(NCCC)nc(Nc3ccccc3)n2)nc(Nc2ccccc2)n1
- IC50 (Leishmania donovani [2]): > 40 µM

Compound: CC(C)Nc1nc(NCCCCOc2nc(Nc3ccccc3)nc(NC(C)C)n2)nc(Nc2ccccc2)n1
- IC50 (Leishmania donovani [2]): 3.51 µM
- Ratio CC50/IC50 [3]: >113.96
- CC50 at 72 h [4]: > 400 µM

Compound: CN1CCN(c2nc(NCCCCOc3nc(Nc4ccccc4)nc(N4CCN(C)CC4)n3)nc(Nc3ccccc3)n2)CC1
- IC50 (Leishmania donovani [2]): 1.33 µM
- Ratio CC50/IC50 [3]: 15.08
- CC50 at 72 h [4]: 20.1 µM

Compound: c1ccc(Nc2nc(NCCCCOc3nc(Nc4ccccc4)nc(N4CCOCC4)n3)nc(N3CCOCC3)n2)cc1
- IC50 (Leishmania donovani [2]): 3.15 µM
- Ratio CC50/IC50 [3]: 87.5
- CC50 at 72 h [4]: 276 µM

Compound: c1ccc(Nc2nc(NCCCCOc3nc(Nc4ccccc4)nc(N4CCCc5ccccc54)n3)nc(N3CCCc4ccccc43)n2)cc1
- IC50 (Leishmania donovani [2]): 8.98 µM
- Ratio CC50/IC50 [3]: 1.9
- CC50 at 72 h [4]: 17.1 µM

Compound: c1ccc(Nc2nc(NCCCCOc3nc(NCCCN4CCOCC4)nc(Nc4ccccc4)n3)nc(NCCCN3CCOCC3)n2)cc1
- IC50 (Leishmania donovani [2]): 1.7 µM
- Ratio CC50/IC50 [3]: 8.11
- CC50 at 72 h [4]: 13.8 µM

Compound: c1ccc(Nc2nc(NCCCCCOc3nc(Nc4ccccc4)nc(N4CCOCC4)n3)nc(N3CCOCC3)n2)cc1
- IC50 (Leishmania donovani [2]): > 40 µM

Compound: CCCNc1nc(NCCCCOc2nc(NCCC)nc(Nc3ccccc3)n2)nc(Nc2ccccc2)n1
- Activity (J774.A1 [5]): Active
- Activity (J774.A1 [6]): inactive
- Activity [7]: inactive
- inhibition in vivo at 50 mg/kg/day (Leishmania donovani [1]): 74.4%
- Activity (J774.A1 [8]): inactive
- fold change (FC) (J774.A1 [9]): 2
- fold change (FC) [10]: 2
- fold change (FC) (J774.A1 [11]): 1.8
- Activity [12]: inactive
- IC50 (Leishmania donovani [2]): 1.99 µM
- fold change (FC) [13]: 3
- Ratio CC50/IC50 [3]: 108.58
- Activity (Syrian golden hamster): Non-toxic
- Activity (J774.A1 [14]): inactive
- CC50 at 72 h [4]: 216 µM

Compound: N=C(N)c1ccc(OCCCCCOc2ccc(C(=N)N)cc2)cc1 [PENTAMIDINE]
- IC50 (Leishmania donovani [2]): 13.7 µM
- Ratio CC50/IC50 [3]: 6.27
- CC50 at 72 h [4]: 85.9 µM

Compound: CCCCCNc1nc(NCCCCOc2nc(NCCCCC)nc(Nc3ccccc3)n2)nc(Nc2ccccc2)n1
- IC50 (Leishmania donovani [2]): 6.46 µM
- Ratio CC50/IC50 [3]: >61.92
- CC50 at 72 h [4]: > 400 µM

Compound: CCN1CCN(c2nc(NCCCCOc3nc(Nc4ccccc4)nc(N4CCN(CC)CC4)n3)nc(Nc3ccccc3)n2)CC1
- IC50 (Leishmania donovani [2]): 0.86 µM
- Ratio CC50/IC50 [3]: 18.87
- CC50 at 72 h [4]: 16.2 µM

Compound: c1ccc(Nc2nc(NCCCCOc3nc(Nc4ccccc4)nc(N4CCc5ccccc5C4)n3)nc(N3CCc4ccccc4C3)n2)cc1
- IC50 (Leishmania donovani [2]): 7.52 µM
- Ratio CC50/IC50 [3]: >53.19
- CC50 at 72 h [4]: > 400 µM

Compound: Sodium stibogluconate
- Ratio CC50/IC50 (Vero): 8.56

Compound: Clc1nc(NCCCCOc2nc(Cl)nc(Nc3ccccc3)n2)nc(Nc2ccccc2)n1
- IC50 (Leishmania donovani [2]): 10.3 µM
- Ratio CC50/IC50 [3]: 0.75
- CC50 at 72 h [4]: 7.74 µM

Compound: CCCNc1nc(NCCCCOc2nc(Nc3ccccc3)nc(NC3CC3)n2)nc(Nc2ccccc2)n1
- IC50 (Leishmania donovani [2]): 8.26 µM
- Ratio CC50/IC50 [3]: 2.2
- CC50 at 72 h [4]: 18.2 µM

Compound: c1ccc(Nc2nc(NCCCCOc3nc(Nc4ccccc4)nc(NC4CC4)n3)nc(NC3CC3)n2)cc1
- IC50 (Leishmania donovani [2]): > 40 µM

Compound: Clc1nc(NCCCCCOc2nc(Cl)nc(Nc3ccccc3)n2)nc(Nc2ccccc2)n1
- IC50 (Leishmania donovani [2]): 8.98 µM
- Ratio CC50/IC50 [3]: 1.9
- CC50 at 72 h [4]: 17.1 µM

Compound: CCCNc1nc(Nc2ccccc2)nc(OCCCCNc2nc(Nc3ccccc3)nc(NC3CC3)n2)n1
- IC50 (Leishmania donovani [2]): 2.65 µM
- Ratio CC50/IC50 [3]: >150.94
- CC50 at 72 h [4]: > 400 µM

Compound: CCCCNc1nc(NCCCCOc2nc(NCCCC)nc(Nc3ccccc3)n2)nc(Nc2ccccc2)n1
- IC50 (Leishmania donovani [2]): 3.21 µM
- Ratio CC50/IC50 [3]: >124.61
- CC50 at 72 h [4]: > 400 µM

Compound: c1ccc(Nc2nc(NCCCCOc3nc(NCCN4CCOCC4)nc(Nc4ccccc4)n3)nc(NCCN3CCOCC3)n2)cc1
- IC50 (Leishmania donovani [2]): 2.91 µM
- Ratio CC50/IC50 [3]: 39.61
- CC50 at 72 h [4]: 115 µM
